Tests used:
[1] = Case report: shopping cravings and compulsive shopping; format: in vivo, human; conditions: person, 2400-3600 mg/day, within two weeks
Protocol: They have had compulsive shopping behaviors for the past 20 years. They have been under severe financial stress because of their spending habits and unemployment. They had other addictive behaviors such as drinking, hoarding and overeating. Earlier, they were married, had stable job but lost everything. Various medicines such as antipsychotics and antidepressants were ineffective. On the third visit they were given N-acetylcysteine and was advised to take 2400-3600 mg/day.

[2] = test system: alcohol-dependent individuals; test: Randomized, double-blind, placebo-controlled trial for treating alcohol dependence: safety; format: in vivo, human; conditions: N-acetylcysteine up to 3600 mg/day, 8-week treatment
Protocol: (§1) Alcohol-dependent individuals were recruited for participation in a randomized, double-blind, placebo-controlled trial for treating alcohol dependence. To evaluate the safety and efficacy of N-acetylcysteine, 2 groups (N-acetylcysteine 3600 mg/day and placebo) were compared. The total study duration was 9 weeks which included a 1-week screening period and an 8-week randomized study drug treatment period. Subjects were randomized to one of two groups (Table 1) and were evaluated weekly.
(§2) Of 46 subjects, 44 subjects who took at least one study medication were included in analysis. Data analyses were conducted on an intention-to-treat sample using the linear mixed effects model introduced by Laird and Ware (Laird, N. M. & J. H. Ware. 1982. “Random-Effects Models for Longitudinal Data.” Biometrics 38:963-974). Outcome variables were measured over nine consecutive weeks. The covariates were Alcoholics Anonymous attendance and baseline alcohol craving. All the P-values reported are 2-tailed. Significance level was set at p<0.05.

[3] = Case reports: food cravings and compulsive overeating; format: in vivo, human
[4] = in vivo; cited from earlier work
[5] = test system: alcohol-dependent individuals; test: Alcohol craving by Obsessive Compulsive Drinking Scale (OCDS) during the trial; format: in vivo, human; design: key to OCDS: OCDS total score, 14 items scored 0-4, max 56
Protocol: as §1, §2
Alcohol craving was also measured weekly by the Obsessive Compulsive Drinking Scale (OCDS) (Anton R. F., et al., The obsessive compulsive drinking scale: A new method of assessing outcome in alcoholism treatment studies. Arch. Gen. Psychiatry. 1996, 53(3), 225-231; Anton R. F., et al., The Obsessive Compulsive Drinking Scale: a self-rated instrument for the quantification of thoughts about alcohol and drinking behavior, Alcohol Clin. Exp. Res., 1995, 19(1), 92-99). The OCDS is a 14-item self-rated reliable scale designed to assess obsessive and compulsive aspects of alcoholism. Each item has a score range of 0-4 (maximum total score=56). Studies of factor analysis have reported that the OCDS loads to three or four factors (OCDS: P<0.05) (Roberts. J. S., et al., Factor structure and predictive validity of the Obsessive Compulsive Drinking Scale, Alcohol Clin. Exp. Res., 1999, 23(9), 1484-1491; Bohn, M. J., et al., Psychometric properties and validity of the obsessive-compulsive drinking scale, Alcohol Clin. Exp. Res., 1996, 20(5), 817-23; Kranzler, H. R., et al., Validity of the Obsessive Compulsive Drinking Scale (OCDS): does craving predict drinking behavior?, Alcohol Clin. Exp. Res. 1999, 23(1), 108-14).

[6] = in vivo; cited from earlier work; remark: listed apart in the source
[7] = test system: cocaine-dependent patients; conditions: cited from earlier work
[8] = test system: alcohol-dependent individuals; test: Alcohol craving by Penn Alcohol Craving Scale (PACS) during the trial; format: in vivo, human
Protocol: as §1, §2
During the trial described in Example 1, alcohol craving was measured weekly by the Penn Alcohol Craving Scale (PACS)(Flannery B. A., et al., Psychometric properties of the Penn Alcohol Craving Scale. Alcohol, Clin. Exp. Res. 1999, 23(8), 1289-95). The PACS is a 5-item self-rated scale designed to assess alcohol craving severity (frequency, intensity, duration, resistance, and overall craving) during the preceding 1 week. Each item has a score range of 0-6 (maximum total craving score=30).

[9] = test system: patients with alcohol dependence; test: Case reports: alcohol consumption and alcohol-related symptoms; format: in vivo, human; design: AST / ALT: unit not given here
[10] = Case report: sexual cravings and hypersexual behaviors; format: in vivo, human; conditions: for hypersexual symptoms: naltrexone and topiramate before N-acetylcysteine
Description: They had sexual arousal even at age five to six years old. They started to masturbate several years later. Pretty soon masturbation became compulsive daily and multiple times a day. By then they had more access to pornography and internet. They would spend hours and hours on it. Their personal life was devastated. They had been in 12 step program called “Sex Addicts Anonymous” for the past 10 years in one of the largest cities in the US. Problem would repeatedly haunt them. Although they were given various antidepressants by doctors their condition had never stopped. They were treated with naltrexone and topiramate. […] Their hypersexual cravings and symptoms were gone. Currently, they are happily married and doing well at work. They are no longer taking naltrexone or topiramate. They are taking N-acetylcysteine only on an as needed basis. We have found same principles in voyeurism, exhibitionism and other sexual deviations. These patients often end up in jail yet they can't help themselves because of uncontrollable cravings.

[11] = test system: cysteine/glutamate exchange; conditions: preclinical studies; cited from earlier work
[12] = test system: alcohol-dependent individuals; test: Quality of Life Enjoyment and Satisfaction Questionnaire (Q-LES-Q) during the trial; format: in vivo, human; design: key to Q-LES-Q: 16-item Q-LES-Q, 5-point scale; higher = better health status
Protocol: as §1, §2
The effect of N-acetylcysteine on quality of life was measured weekly during the trial described in Example 1. The quality of life was measured by the Quality of Life Enjoyment and Satisfaction Questionnaire (Q-LES-Q).
The short form of the Q-LES-Q is a 16-item self-rated scale designed to assess quality of life, differences in the degree of enjoyment and satisfaction among groups of subjects, as well as changes over time in a single subject (Endicott J., et al., Quality of Life Enjoyment and Satisfaction Questionnaire: a new measure, Psychopharmacol. Bull., 1993, 29(2), 321-326). It is a 5-point scale, with higher scores indicating better health status. The Q-LES-Q SF has been used extensively in drug treatment trials in psychiatry and addictions and has shown good reliability and validity (Endicott J., et al., Pediatric Quality of Life Enjoyment and Satisfaction Questionnaire (PQ-LES-Q): reliability and validity. J. Am. Acad. Child Adolesc. Psychiatry, 2006, 45(4), 401-7). It assesses the following areas: physical health, mood, work, household activities, social relationships, family relationships, leisure time activities, ability to function in daily life, sexual drive, interest and/or performance, economic status, living/housing situation, ability to get around physically, ability to do work or hobbies, and overall sense of well being.

[13] = Liver function tests (plasma AST, ALT, GGT) during the trial; format: in vivo, human; design: AST / ALT / GGT: unit not given here; conditions: for ALT / AST / GGT: plasma
Protocol: as §1
The effect of N-acetylcysteine on liver functions was measured during the trial described in Example 1. Liver functions were assessed by measuring changes in plasma aspartate aminotransferase (AST), alanine aminotransferase (ALT) and γ-glutamyl transferase (GGT) levels three times during the study (week 0, week 5 and week 9).

CC(=O)N[C@@H](CS)C(=O)O [N-acetylcysteine]
shopping cravings and behaviors [1]: stopped dramatically
serious adverse effects [2]: no serious adverse effects
tolerability [2]: well tolerated
weight ([3]; Case 1, from 239 lbs, in 5 weeks, 2700-3600 mg per day): 225 lbs
weight ([3]; Case 1, two months later, 3600 mg): 224 lbs
weight ([3]; Case 2, from 295 lbs, in one month): 286 lbs
time for food craving to subside after taking ([3]; Case 3, 1200 mg): ≤ 15 min
weight lost ([3]; Case 3, start 220 lbs, two weeks, 1200 mg three times a day): 6 lbs
food cravings and compulsive overeating ([3]; numerous test subjects): reduced food cravings and compulsive overeating
treatment of pathological gambling [4]: showed the efficacy
OCDS ([5]; Week 1): 29.0000
OCDS ([5]; Week 2): 24.9000
OCDS ([5]; Week 3): 21.6316
OCDS ([5]; Week 4): 20.3684
OCDS ([5]; Week 5): 18.5556
OCDS ([5]; Week 6): 16.0000
OCDS ([5]; Week 7): 13.5333
OCDS ([5]; Week 8): 13.4667
OCDS ([5]; Week 9): 13.8000
alcohol craving by OCDS compared to placebo ([5]; during the trial, p=0.042): decreased alcohol craving
half-life [6]: short half-life
cocaine use and craving ([7]; double-blind placebo-controlled crossover trial): reduced cocaine use and craving
safety and tolerability ([7]; human, in vivo): safe and well tolerated
cocaine use ([7]; open-label clinical study of cocaine-dependent patients): significantly reduced cocaine use
PACS ([8]; Week 1): 18.1429
PACS ([8]; Week 2): 15.1500
PACS ([8]; Week 3): 14.0000
PACS ([8]; Week 4): 11.9474
PACS ([8]; Week 5): 11.7778
PACS ([8]; Week 6): 9.3529
PACS ([8]; Week 7): 8.3333
PACS ([8]; Week 8): 7.2667
PACS ([8]; Week 9): 7.2000
alcohol craving by PACS compared to placebo ([8]; during the trial, p=0.041): decreased alcohol craving
alcohol use ([9]; Case 1, after taking 900 mg): able to stop drinking alcohol
alcohol craving ([9]; Case 1, on 3600 mg): substantial reduction in their craving
AST ([9]; Case 2, from 41, in two months while taking N-acetylcysteine): 20
ALT ([9]; Case 2, from 51, in two months while taking N-acetylcysteine): 18
GGT ([9]; Case 2, from 1420, in two months while taking N-acetylcysteine): 327
alcohol use ([9]; Case 2, soon after start): able to abstain from alcohol
alcohol use ([9]; Case 3, at 3600 mg/day): able to stop drinking alcohol completely
alcohol use ([9]; Case 4, 900 mg, before 12-24 beers/day): 6 drinks/day
alcohol use ([9]; Case 4, several weeks later, 2400-3600 mg): able to abstain from alcohol
drinking consumption ([9]; Case 5, 3600 mg, before 6-12 drinks of vodka per day): reduced their drinking significantly
drinking consumption ([9]; Case 5, at 900-2700 mg/day): about the same
alcohol consumption and other alcohol-related symptoms ([9]; numerous test subjects): reduced alcohol consumption and other alcohol-related symptoms
effect in voyeurism, exhibitionism and other sexual deviations ([10]; patients with uncontrollable cravings): works dramatically
hypersexual cravings and symptoms ([10]; person, 2400-3600 mg/day added to naltrexone and topiramate): ameliorated dramatically
cocaine-primed reinstatement [11]: inhibited
heroin-induced reinstatement [11]: inhibited
Q-LES-Q ([12]; Week 1): 50.4000
Q-LES-Q ([12]; Week 2): 51.6390
Q-LES-Q ([12]; Week 3): 53.8772
Q-LES-Q ([12]; Week 4): 54.1789
Q-LES-Q ([12]; Week 5): 57.7852
Q-LES-Q ([12]; Week 6): 57.5529
Q-LES-Q ([12]; Week 7): 58.1422
Q-LES-Q ([12]; Week 8): 57.8000
Q-LES-Q ([12]; Week 9): 58.7244
quality of life by Q-LES-Q compared to placebo ([12]; during the trial, p=0.017): improved the quality of life
liver functions (AST, ALT, GGT liver function tests) ([13]; 8-week trial): improved liver functions
ALT ([13]; Week 0): 36.67
AST ([13]; Week 0): 40.89
GGT ([13]; Week 0): 193.00
ALT ([13]; Week 5): 33.06
AST ([13]; Week 5): 30.28
GGT ([13]; Week 5): 139.06
ALT ([13]; Week 9): 29.13
AST ([13]; Week 9): 26.13
GGT ([13]; Week 9): 92.93

O=C1CC[C@@]2(O)[C@H]3Cc4ccc(O)c5c4[C@@]2(CCN3CC2CC2)[C@H]1O5 [naltrexone]
hypersexual symptoms ([10]; person): only partially

CC1(C)O[C@@H]2[C@@H](CO[C@@]3(COS(N)(=O)=O)OC(C)(C)O[C@@H]23)O1 [topiramate]
hypersexual symptoms ([10]; person): only partially
